Counter-ions that a name gives are not always drawn.

For two compounds, EC50 results are on record in US7202261B2, “Calcilytic compounds” (NPS Pharmaceuticals, Inc., priority 1996, dated 2007).

The subject of the assay is dissociated bovine parathyroid cells. The assay can be described thus: Stimulation of PTH secretion. The assay is classed as cell-based. The conditions noted are these: Bos taurus, 0.5 h, 0.5 mM Ca2+, 30 minutes. The protocol: This example illustrates the ability of different calcilytic compounds to exert a biological effect on PTH secretion. PTH secretion was determined using dissociated bovine parathyroid cells as described below for Compounds 32, 33, and 38. […] Stimulation of PTH secretion was assayed as follows: Parathyroid cell buffer (PCB) contains (mM): NaCl, 126; KCl, 4; MgSO4, 1; K2HPO4/KH2PO4, 0.7; Na-Hepes, pH 7.45, and variable amounts of CaCl2 as specified (reagent grade). PCB was typically supplemented with bovine serum albumin (BSA fraction V; ICN Biomedicals, Inc., Costa Mesa, Calif.; catalog #81-003) and 1 mg/mL of D-glucose (reagent grade) as indicated. Percoll purification buffer was prepared immediately before use by mixing 8 mL of Percoll (Pharmacia LKB, Alameda, Calif.; catalog #17-0891-01) and 7 mL of a twice-concentrated PCB solution without phosphate and containing 2 mM CaCl2. Parathyroid glands were obtained from calves within minutes of slaughter at an abattoir and shipped via overnight express on ice in PCB containing 1.25 mM CaCl2. The glands were trimmed and minced in ice-cold PCB containing 1.25 mM CaCl2, 1 mg/mL of D-glucose, and 2% BSA. […]

In turn, `COc1ccc(CC(C)(C)NC[C@@H](O)COc2ccccc2)cc1` (single isomer, unassigned) [Compound 32, (R) or (S)—N-(2-Hydroxy-3-phenoxypropyl)-1,1-dimethyl-2-(4-methoxyphenyl)ethylamine Hydrochloride] showed an EC50 below 10 µM.

`COc1ccc(CC(C)(C)NCC(O)COc2cccc(OC)c2)cc1` (centres unmarked) [Compound 38, N-[2-Hydroxy-3-(3-methoxyphenoxy)propyl]-1,1-dimethyl-2-(4-methoxyphenyl)ethylamine Hydrochloride] came in with an EC50 below 10 µM.

Usually EC50 stands for the concentration giving half of the maximal effect. A higher EC50 goes with a less potent agent.
